Target: T1, TNK1 kinase (Homo sapiens, UniProt Q13470)
T1 sequence (Q13470 1-666): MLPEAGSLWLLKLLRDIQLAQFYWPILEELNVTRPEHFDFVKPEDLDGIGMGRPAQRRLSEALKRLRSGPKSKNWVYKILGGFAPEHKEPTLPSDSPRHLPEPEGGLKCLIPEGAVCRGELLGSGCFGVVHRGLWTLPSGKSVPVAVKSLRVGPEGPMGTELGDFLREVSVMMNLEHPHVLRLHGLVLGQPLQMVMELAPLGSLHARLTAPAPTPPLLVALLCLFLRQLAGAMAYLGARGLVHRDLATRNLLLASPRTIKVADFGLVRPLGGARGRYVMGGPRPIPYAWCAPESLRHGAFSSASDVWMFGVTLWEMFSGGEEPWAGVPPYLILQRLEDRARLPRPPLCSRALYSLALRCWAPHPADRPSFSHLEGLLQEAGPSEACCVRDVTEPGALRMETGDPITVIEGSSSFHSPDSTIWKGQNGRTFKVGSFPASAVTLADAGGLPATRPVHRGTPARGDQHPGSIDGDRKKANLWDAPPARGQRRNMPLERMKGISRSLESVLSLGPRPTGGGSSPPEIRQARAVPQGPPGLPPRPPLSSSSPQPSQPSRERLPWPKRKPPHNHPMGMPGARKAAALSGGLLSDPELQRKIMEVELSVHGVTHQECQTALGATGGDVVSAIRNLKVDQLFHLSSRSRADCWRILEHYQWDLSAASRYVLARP
Assay: TNK1 kinase activity inhibition assay (ADP-Glo)
Assay type: biochemical
Method: Measure compound inhibitory activity against TNK1 kinase using ADP-Glo Assay. 1× kinase reaction buffer was prepared (working concentrations: HEPES 50 mM, MgCl2 10 mM, Brij35 0.01%, EGTA 1 mM, DTT 2 mM). 2× kinase and 4× substrate buffers were prepared with the following working concentrations: For TNK1 kinase: kinase solution at 5 nM; substrate mixture containing ATP at 45 µM and MBP substrate at 0.1 mg/ mL. For ULK2 kinase: kinase solution at 0.15 nM; substrate mixture containing ATP at 6 µM and MBP substrate at 0.1 mg/mL. Compounds were serially diluted in DMSO and shaken on an orbital shaker for 20 minutes. 2× kinase solution was prepared using 1× kinase reaction buffer. 20 nL of compound solution was transferred to a 384-well plate. 2 µL of kinase solution was added to each well of the reaction plate. The plate was sealed with adhesive film, centrifuged at 1000 rpm for 60 seconds, and incubated at 25°C for 10 minutes. 2× ATP&MBP mixture was prepared using 1× kinase reaction buffer. 2 µL of 2× ATP&substrate mixture was added to the reaction plate. The plate was sealed with adhesive film, centrifuged at 1000 rpm for 60 seconds, and incubated at 25°C for 60 minutes. 4 µL of ADP-Glo reagent was transferred to the 384-well reaction plate, centrifuged at 1000 rpm for 1 minute, and incubated at 25°C for 40 minutes. 8 µL of Detection solution was transferred to the 384-well reaction plate, centrifuged at 1000 rpm for 1 minute, and incubated at 25°C for 40 minutes. Relative luminescence units (RLU) were measured using a BMG microplate reader, with signal intensity representing kinase activity level. The inhibition percentage was calculated as follows: % inhibition = 100% - [(Compound RLU - Positive Control RLU)/(Negative Control RLU - Positive Control RLU)] × 100%. The IC50 values (half-maximal inhibitory concentration) of compounds were determined by fitting the data to the following nonlinear regression equation using GraphPad Prism 7.0 software: Y = Bottom + (Top - Bottom)/(1 + 10^((LogIC50 - X) × Hill Slope)), where: X = log(compound concentration), Y = % inhibition. Table1: Inhibitory activity of compounds against ULK (IC50, nM)

In the case of `CNC(=O)c1ccccc1Nc1cc(Nc2cc3c(cc2OC)N2CCN(C4CCN(C)CC4)C[C@H]2CO3)ncc1C(F)(F)F` [Compound D2S], the IC50 is reported as < 10 nM.
